Patent publication US7846436B2, “Oligonucleotides and related compounds” (ChemGenes Corporation, priority 2003, dated 2010)
[dFC] = 2'-deoxy-2',2'-difluorocytidine (gemcitabine) nucleoside, linked at the 5' end of the ODN; d = 2'-deoxy (DNA)

Assays:
[1] = Stability studies in pyridine and ammonia (TLC, Rf, UV, HPLC); assay type: physicochemical; conditions: 37° C., 18 hrs
Protocol: The 2′-deoxy, 2′,2′-difluorocytidine derivatives, N-Bz-Gemcitabine and 5′-O-DMT-(N-bz) Gemcitabine prepared as above, were tested for their stability.

[2] = tested on: human colon adenocarcinoma cancerous cells HT29; assay: Flow cytometric DNA cell cycle profile, killing of colon cancer cells; assay type: cell-based; conditions: for killing colon cancer cells HT29, compared with Gemcitabine (Gemzar) alone at equivalent dosages: 20 and 50 ng/ml Gemzar equivalent, 1 hour treatment, then 47 hours in normal medium without drugs, FIG. 13
[3] = tested on: human colon normal cells CCD112CoN; assay: Flow cytometric DNA cell cycle profile, killing of colon normal cells; assay type: cell-based; conditions: 20 and 50 ng/ml Gemzar equivalent; 1 hour treatment, then 47 hours in normal medium without drugs; FIG. 14
Protocol: Monolayer cultures of human colon adenocarcinoma cancerous cells HT29 (American Type Culture Collection HTB-38), and human colon normal cells CCD112CoN (American Type Culture Collection CRL-1541) were grown in DMEM growth medium, or Dulbecco's modified Eagle's medium (DMEM; Sigma Chemical Co., St. Louis, Mo.) containing 10% fetal bovine serum (FBS; Biological Industries, Kibbutz, Israel). Incubation was in 10% CO2 at 37° C.
Gemzar (MW 299.5), or 2′-deoxy, 2′,2′-difluorocytidine hydrochloride for injection, as manufactured by Lilly France S.A., Fegersheim, France). Gemzar-ODNs were 2′-deoxy, 2′,2′-difluorocytidine (dFC, or difluorodeoxycitidine) linked to 4 oligodeoxynucleotide (ODN) sequences (synthesized by Chemgenes Corp, Wilmington, Mass.) as follows:
Aqueous stock solutions were prepared at the Gemzar or Gemzar-equivalent concentration of 0.2 mg/ml. Parallel monolayer cultures in log phase growth were treated for 1 hr at 37° C. with a final concentration of 0, 20 and 50 ng/ml of Gemzar or Gemzar equivalent from each of the 4 sequences of Gemzar-ODN that were synthesized. After the 1 hr pulse treatment with either Gemzar or Gemzar-ODNs, the cell cultures were reincubated for another 47 hr at 37° C. in normal DMEM growth medium without Gemzar or Gemzar-ODN. Control cultures were similar parallel cultures and had similar 1 hr and 47 hr reincubations, except without any Gemzar or Gemzar-ODN content. After the 47 hr reincubation, all cultures were evaluated at the same time for their DNA cell cycle profile using flow cytometry.
This was evaluated as previously described (Cell Death Differ. 4: 213-223, 1997; Exp. Cell Res. 240: 293-304, 1998). Propidium iodide (PI) stock solution was prepared at 50 ug/ml in tris buffered saline (1.21 mg/ml Tris, 0.584 mg/ml NaCl). Ribonuclease A (RNase A) was freshly added to the PI stock solution at 6 mg/ml immediately before use. Cells were harvested by scraping with a cell scraper and triturated to obtain a single cell suspension using a hypodermic syringe fitted with a 21-gauge needle. Cells were spun down at 1000 g for 5 min, and washed once in 5 ml phosphate buffered saline (PBS A, Oxoid, London, UK). Cells were then permeabilized by resuspending in 1% Bouin's fluid (15 parts 1.2% saturated aqueous picric acid, 5 parts formalin, 1 part glacial acetic acid) in PBS. Cells were repelleted and suspend in the PI-RNase for 1 hour over ice, before flow cytometric evaluation at ex/em 488/590 nm and 20,000 counts sample size. The Coulter Epics Elite ESP flow cytometer and Workstation program version 4.01 (Coulter Electronics, Hialeah, Fla.) were used with WinMDI version 2.8 (Scripps Research Institute, La Jolla, Calif.

Row | Compound | killing colon normal cells CCD-112CO, compared with Gemcitabine (Gemzar) alone at equivalent dosages [3] | killing colon cancer cells HT29, compared with Gemcitabine (Gemzar) alone at equivalent dosages [2] | also measured
1 | O=C(Nc1ccn([C@@H]2O[C@H](CO)[C@@H](O)C2(F)F)c(=O)n1)c1ccccc1 [Compound II, N-Benzoyl-2′-deoxy, 2′,2′-difluorocytidine] | – | – | stability (breakdown) in pyridine and ammonia [1]: converted into 2′-deoxy, 2′,2′-difluorocytidine completely without any deterioration and byproduct formation; stability (breakdown) in pyridine and ammonia ([1]; listed as N-Bz-Gemcitabine): no breakdown of Gemcitabine, other than loss of the protecting group
2 | COc1ccc(C(OC[C@H]2O[C@@H](n3ccc(NC(=O)c4ccccc4)nc3=O)C(F)(F)[C@@H]2O)(c2ccccc2)c2ccc(OC)cc2)cc1 [Compound III, 5′-O-DMT (N-Bz) 2′-deoxy, 2′,2′-difluorocytidine] | – | – | stability (breakdown) in pyridine and ammonia [1]: no breakdown of Gemcitabine, other than loss of the protecting group
3 | Cl.Nc1ccn([C@@H]2O[C@H](CO)[C@@H](O)C2(F)F)c(=O)n1 [Gemzar, 2′-deoxy, 2′,2′-difluorocytidine hydrochloride, reference compound] | – | – | difference between the killing of cancer cells and normal cells ([2]; HT29 (FIG. 13) compared with CCD-112CO (FIG. 14) at equivalent dosages): only minimal difference
4 | dFC GGA CG (NGGACG; sugars from the 5' end [dFC]1 d5, backbone, methylation of C and the base at N not given here) [GEMCITABINE-ODN-Seq. I.D.#7, Gemzar-ODN] | more effectively than by treatment with GEMCITABINE alone | much more effectively than by treatment with GEMCITABINE alone | –
5 | dFC GGA CGT GGA ACG (NGGACGTGGAACG; sugars from the 5' end [dFC]1 d12, backbone, methylation of C and the base at N not given here) [GEMCITABINE-ODN-Seq. I.D.#9, Gemzar-ODN] | more effectively than by treatment with GEMCITABINE alone | much more effectively than by treatment with GEMCITABINE alone | –
6 | dFC GGA GCT GGA ACG (NGGAGCTGGAACG; sugars from the 5' end [dFC]1 d12, backbone, methylation of C and the base at N not given here) [GEMCITABINE-ODN-Seq. I.D.#10, Gemzar-ODN] | more effectively than by treatment with GEMCITABINE alone | much more effectively than by treatment with GEMCITABINE alone | –
7 | dFC GTG GAA CG (NGTGGAACG; sugars from the 5' end [dFC]1 d8, backbone, methylation of C and the base at N not given here) [GEMCITABINE-ODN-Seq. I.D.#8, Gemzar-ODN] | more effectively than by treatment with GEMCITABINE alone | much more effectively than by treatment with GEMCITABINE alone | –
